From patent US9642789B2, “Methods for generating new hair follicles, treating baldness, and hair removal” (THE TRUSTEES OF THE UNIVERSITY OF PENNSYLVANIA, priority 2005, dated 2017)
Entries after “also recorded” stand apart in the source; their conditions may differ.

Molecular target: T1, EGF receptor (Mus musculus, UniProt Q01279)
T1 construct: from tissue; host or cells: healing skin wound of live mice
Test: EDIHN after single injection of EGF receptor inhibitor into wound
Assay type: in vivo, mice
Details: 150 μM in 10 μL, single injection 11 days after 1 cm^2 incisional wounding; K17 and AP staining
Method: To determine the effect of administration of EGF receptor inhibitors on DIHN, the inhibitor AG1478 (150 μM in 10 μL volume) was administered as a single injection 11 days after incisional wounding (1 cm^2) to the middle of the wound near the skin surface. […] Left panel: epidermis stained for K17, with three large hair follicles next to each other. Right panel: dermis stained for AP with large coalescing dermal papilla areas.

T1 sequence (Q01279 25-1210): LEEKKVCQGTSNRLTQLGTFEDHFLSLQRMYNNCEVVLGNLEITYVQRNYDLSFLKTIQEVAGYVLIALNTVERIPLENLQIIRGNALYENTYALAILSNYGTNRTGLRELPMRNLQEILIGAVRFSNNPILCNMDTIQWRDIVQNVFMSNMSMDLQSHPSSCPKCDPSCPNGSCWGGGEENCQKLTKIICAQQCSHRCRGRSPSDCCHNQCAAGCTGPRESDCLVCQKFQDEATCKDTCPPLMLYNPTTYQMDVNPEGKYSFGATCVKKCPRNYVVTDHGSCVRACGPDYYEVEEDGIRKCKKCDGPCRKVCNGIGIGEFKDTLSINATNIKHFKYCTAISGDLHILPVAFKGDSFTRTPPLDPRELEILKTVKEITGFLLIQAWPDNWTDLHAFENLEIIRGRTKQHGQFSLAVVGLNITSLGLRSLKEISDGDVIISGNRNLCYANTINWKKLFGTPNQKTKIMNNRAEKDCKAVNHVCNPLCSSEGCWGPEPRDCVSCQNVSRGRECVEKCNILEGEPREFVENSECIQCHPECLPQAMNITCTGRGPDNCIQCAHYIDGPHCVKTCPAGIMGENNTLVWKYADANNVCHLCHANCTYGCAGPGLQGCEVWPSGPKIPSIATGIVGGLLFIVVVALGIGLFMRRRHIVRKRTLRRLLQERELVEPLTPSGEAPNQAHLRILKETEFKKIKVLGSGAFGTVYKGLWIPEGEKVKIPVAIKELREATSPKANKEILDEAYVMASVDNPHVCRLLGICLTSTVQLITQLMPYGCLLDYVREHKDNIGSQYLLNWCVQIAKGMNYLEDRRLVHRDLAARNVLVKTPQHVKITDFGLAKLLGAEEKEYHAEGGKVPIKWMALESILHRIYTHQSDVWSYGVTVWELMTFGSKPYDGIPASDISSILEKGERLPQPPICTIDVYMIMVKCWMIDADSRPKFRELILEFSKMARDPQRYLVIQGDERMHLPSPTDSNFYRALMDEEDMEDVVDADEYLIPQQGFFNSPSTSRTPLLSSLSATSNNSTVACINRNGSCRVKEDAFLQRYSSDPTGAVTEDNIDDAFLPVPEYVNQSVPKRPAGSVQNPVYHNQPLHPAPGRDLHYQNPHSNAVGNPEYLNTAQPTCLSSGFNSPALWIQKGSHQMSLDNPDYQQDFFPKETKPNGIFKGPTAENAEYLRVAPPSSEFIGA

## COc1cc2ncnc(Nc3cccc(Cl)c3)c2cc1OC [AG1478]
  number and size of hair follicles generated compared with control mice wounded only: more and larger hair follicles; also recorded: more and larger HF
